Measurements: PubChem BioAssay AID1996
Converted amounts (≈) assume the structure as drawn.

Conditions: buffer; pH 7.4; 200.0 µM

Compound | solubility kinetic
CNC(=O)COC(=O)c1ccccc1NC(=O)c1ccco1 | > 45.3 µg/mL
O=C(Nc1ccccc1C(=O)NC1CC1)c1ccccc1 | 16.7 µg/mL (≈ 59.6 µM)
CSc1ccc(C(=O)NCC(=O)O)cc1[N+](=O)[O-] | > 40.5 µg/mL
N#Cc1c(-c2ccco2)ccn(Cc2cccc(F)c2)c1=O | 3.2 µg/mL (≈ 10.9 µM)
COc1cccc(NC(=O)Nc2cc(C)on2)c1 | > 37.1 µg/mL
O=C(O)c1ccc(Nc2ccc(F)c(F)c2)c([N+](=O)[O-])c1 | > 44.1 µg/mL
N#Cc1ccccc1OCC(=O)Nc1ccc2c(c1)OCCCO2 | > 48.7 µg/mL
Cc1ccc2c(c1)C(c1ccccc1)=NCC(=O)N2C | > 39.6 µg/mL
Cc1cccc(C(=O)OCC(=O)N2CCCCCC2)c1C | > 43.4 µg/mL
O=[N+]([O-])c1cccc(S(=O)(=O)NCc2ccccn2)c1 | 41.2 µg/mL (≈ 140 µM)
CC(C(=O)NCc1ccccc1Cl)N1C(=O)c2ccccc2C1=O (stereo unspecified) | > 51.4 µg/mL
Cc1nn(Cc2cccc(C(=O)O)c2)c(C)c1[N+](=O)[O-] | > 41.3 µg/mL
CCC1Oc2ccccc2N(CC(=O)NC2CCCC2)C1=O (stereo unspecified) | 42.2 µg/mL (≈ 140 µM)
COCCNC(=O)c1oc2ccc3c(c2c1C)C(O)CC(C)(C)O3 (stereo unspecified) | > 50 µg/mL
COc1ccc(OC)c(C(=O)NC2CCSc3ccccc32)c1 (stereo unspecified) | 12.1 µg/mL (≈ 36.7 µM)
CCOc1ccccc1N1CCN(C(=O)NC2CCCCC2)CC1 | > 49.7 µg/mL
CCOC(=O)C1=C(C)NC(=O)NC1/C=C/c1ccccc1OC (stereo unspecified) | 2.6 µg/mL (≈ 8.22 µM)
COCCNC(=S)N1CCN(C)CC1.O=C(O)C(=O)O | > 46.1 µg/mL
CN(CC1COc2ccccc2O1)C(=O)Cn1cc(C(F)(F)F)ccc1=O (stereo unspecified) | > 57.4 µg/mL
Cc1cc(C)c2c(n1)sc1c(N3CCCCC3)ncnc12 | < 0.2 µg/mL
Cc1cccc(N2CN=c3s/c(=C\c4ccccn4)c(=O)n3C2)c1 | 5.3 µg/mL (≈ 15.8 µM)

Compound | solubility kinetic
Cc1ccc(O)c(N/C=C/C(=O)c2ccc(F)cc2)c1 | 1.1 µg/mL (≈ 4.05 µM)
CC(NC(=O)/C(C#N)=C/c1ccco1)c1ccccc1 (stereo unspecified) | 38.8 µg/mL (≈ 146 µM)
O=C(NCCc1ccc2c(c1)OCCO2)c1ccccn1 | > 42.6 µg/mL
COc1ccc(C(=O)NCCCNC(=O)c2ccco2)cc1OC | > 49.9 µg/mL
Fc1ccccc1CNC(=S)NCc1ccc(Cl)cc1 | 3.3 µg/mL (≈ 10.7 µM)
CN(C)Cc1ccccc1C(O)(c1ccccc1)c1ccccc1 | 1.2 µg/mL (≈ 3.78 µM)
CC1CN(C(=O)NCc2ccccc2)c2cc(Cl)ccc2O1 (stereo unspecified) | 6.3 µg/mL (≈ 19.9 µM)
O=[N+]([O-])c1ccc(Nc2ccccn2)c([N+](=O)[O-])c1 | 2.7 µg/mL (≈ 10.4 µM)
O=C(Cc1ccc(F)cc1)Nc1ccc(Cl)cn1 | 8.1 µg/mL (≈ 30.6 µM)
CCOC(=O)CNC(=O)C12CC3CC(CC(C3)C1)C2 | 37.8 µg/mL (≈ 142 µM)
COc1ccccc1NC(=O)NCCc1c[nH]c2ccccc12 | 41.1 µg/mL (≈ 133 µM)
CC(NC(=O)c1ccco1)C(=O)OCc1cccc(C(F)(F)F)c1 (stereo unspecified) | > 51.2 µg/mL
Cc1cc(C(C)(C)C)ccc1NC(=O)CC(C)(C)CC(=O)O | > 45.8 µg/mL
O=C(COC(=O)c1cc[n+]([O-])cc1)Nc1ccc([N+](=O)[O-])cc1 | > 47.6 µg/mL
CC1CN(CC(=O)Nc2ccc([N+](=O)[O-])cc2Br)CC(C)O1 (stereo unspecified) | 6.4 µg/mL (≈ 17.2 µM)
CC(C)(C)NC(=S)Nc1cccc(C(F)(F)F)c1 | 17.1 µg/mL (≈ 61.9 µM)
Cc1ccsc1C1C(C#N)=C(N)OC2=C1C(=O)CC(C)(C)C2 (stereo unspecified) | > 47.2 µg/mL
Cc1cccc(C)c1OCC(=O)NCC1CCCO1 (stereo unspecified) | 39.5 µg/mL (≈ 150 µM)
Cc1ccc(CN(C)C(=O)c2cccc(S(=O)(=O)N3CCCC3)c2)o1 | > 54.4 µg/mL
CCN1CCN(c2nc(NCCO)c3ccccc3n2)CC1.Cl | 48 µg/mL
CCc1ccccc1N1C(=O)C(Cl)=C(N2CCOCC2)C1=O | 45.8 µg/mL (≈ 143 µM)

Compound | solubility kinetic
CCOC(=O)N1CCN(C(=O)/C=C/c2ccc(OC)cc2)CC1 | 36.1 µg/mL (≈ 113 µM)
O=C1CN(C(=O)COC(=O)CCS(=O)(=O)c2ccccc2Cl)c2ccccc2N1 | > 65.5 µg/mL
c1cc(CCCc2ccncc2)ccn1 | > 29.7 µg/mL
Cc1ccc(N2C(=O)CC(N3CCc4ccccc43)C2=O)cc1Cl (stereo unspecified) | < 0.4 µg/mL
N#C/C(=C\c1ccncc1)c1nc2ccccc2o1 | 12.9 µg/mL (≈ 52.2 µM)
Cc1nc(C)c(C(=O)Nc2cccc(C)c2C)s1 | > 39.1 µg/mL
Clc1ccc(-c2csc(-c3cccnc3)n2)s1 | 0.7 µg/mL (≈ 2.51 µM)
NC(=O)COC(=O)c1cc(-c2ccco2)nc2ccccc12 | 39.9 µg/mL (≈ 135 µM)
O=C(NCCCN1CCOCC1)C1Cc2c(ccc3ccccc23)O1 (stereo unspecified) | > 51.1 µg/mL
O=C(CC1SCCNC1=O)Nc1ccccc1Cl (stereo unspecified) | 38.6 µg/mL (≈ 136 µM)
O=C(O)c1nc(NCc2ccccc2)ncc1Cl | > 39.6 µg/mL
O=c1[nH][nH]c2ccccc2c1=O | > 24.3 µg/mL
C=CCn1c(C)nc2c(sc3nc4c(cc32)COC(C)(C)C4)c1=O | > 51.2 µg/mL
O=C(NC1CCCC1)c1cc(-c2ccccc2)on1 | 4 µg/mL (≈ 15.6 µM)
Cc1ccc(C2(C)NC(=O)N(CC(=O)Nc3ccc4c(c3)CCC4)C2=O)cc1 (stereo unspecified) | 3.5 µg/mL (≈ 9.27 µM)
O=C(CCNC(=O)c1ccccc1)OCC(=O)c1ccccc1 | > 46.7 µg/mL
CCOc1c(N2CCOCC2)c(=O)c1=O | > 31.7 µg/mL
COc1ccc(C2SCC(=O)N2c2ccccc2)cc1 (stereo unspecified) | 38.6 µg/mL (≈ 135 µM)
COCc1cc(C)nc2oc(C(=O)c3ccccc3)c(N)c12 | 8.4 µg/mL (≈ 28.3 µM)
